This is an account of results in patent US20260325485A1, “COMPOSITIONS AND METHODS FOR TREATING PANCREATITIS” (The United States Government as represented by the …, priority 2022, published 2026).

One experiment deals with human acinar cells. Put plainly: Total cholesterol content of human acinar cells (ex vivo pancreatitis models). The experiment is classed as cell-based. The procedure: (§1) FIGS. 8A-8M show derangement of cholesterol metabolism in experimental pancreatitis. Characteristics of cholesterol metabolism were measured, as detailed in FIGS. 4A-4R, in pancreas of WT mice subjected to pancreatitis induced with cerulein (CER-AP), L-arginine (Arg-AP), or CDE diet (CDE-AP) (A, B, and E-G); ex vivo pancreatitis induced in WT mouse (C and I-M) or human acinar cells (D) with 100 nM CCK (CCK-AP) or 1 mM carbachol; and isolated pancreatic mitochondria (H). (B) Cholesterol ester (CE) heatmap; each column represents an individual mouse. (F) IB analysis of the indicated proteins. (G) LAL activity was measured by a fluorogenic assay (n=6 mice per condition). (H) Cholesterol content was measured by enzymatic assay. (I-M) Filipin colocalization with indicated proteins was quantified as detailed in FIGS. 2A-2L. Each symbol in A, C-E, and H represents an individual mouse, or cell or mitochondria preparation (n=3-15 per condition). Each symbol in J, K, and M corresponds to 20-30 cells in a different field (n=10-20 fields from 3 cell preparations per condition). Values are mean±SEM. *P<0.05, **P<0.01, ***P<0.001 vs. the same parameter in control/untreated pancreas, acinar cells or isolated mitochondria. Significance was determined by 2-tailed Student's t test (B, E, H, J, K, and M) or 1-way ANOVA followed by Tukey's multiple comparison test (A, C, and D). Scale bars: 10 μm.
(§2) Parameters of cholesterol metabolism were measured in (A, B, E, F) pancreas of mice subjected to pancreatitis induced with cerulean (CER-AP), L-arginine (Arg-AP), or combination of EtOH+palmitoleic acid (EtOH+POA); and (C) ex-vivo models on mouse and human acinar cells treated for 1 h with 100 nM CCK, […] or 500 μM TLCS. In (A), each column in CE heatmap represents an individual mouse. (B, C) Total cholesterol content was measured with cholesterol assay kit (Abcam, ab65390). […] Each symbol corresponds to 20-30 cells in each of 8 high-expression (qPCR) of proteins regulating cholesterol synthesis (4 mice/group). (B-D) Each symbol represents an individual animal or cell preparation. (A-D, F) Values are mean±SE (*p<0.05, **p<0.01, ***p<0.001 vs saline or control). Signficance was determined by 2-tailed student's t test.
(§3) Ex vivo pancreatitis models were performed on mouse and human acinar cells, and human pancreas slices by incubation with supramaximal CCK (100 nM) or carbachol (1 mM), as described previously (80, 81).
Human pancreas slices were obtained as in (12), from portions of live normal human pancreata from pre-terminal donors that were not used for transplantation and diverted to research (provided by Trillium Gift of Life Network, Toronto, Ontario, year 2020) or from normal portions of pancreatic cancer operations. Pancreas was cut into ~3×3×3 mm pieces and embedded with 37° C. low melting 3.8% agarose gel in extracellular solution containing (mM): 125 NaCl, 2.5 KCl, 1 MgCl2, 2 CaCl2, 1.25 NaH2PO4, 26 NaHCO3, 2 sodium pyruvate, 0.25 ascorbic acid, 3 myo-inositol, 6 lactic acid, and 7 glucose, and placed on ice to solidify the gel. The gelled tissue blocks were sliced with Vibratome into 120 μm-thick slices; slices were washed with the same extracellular solution, placed in 199 medium containing 0.1 mg/mL soybean trypsin inhibitor, and treated with CCK-8 (CCK) or carbachol for ex-vivo pancreatitis.
Total cholesterol content was measured with Cholesterol Assay kit per manufacturer's instructions. […]

For a further experiment, the system named is free cholesterol. Put plainly: Filipin colocalization with organelle markers in ex vivo CCK-AP. It counts as cell-based, mouse. Particulars: 100 nM CCK. The procedure: as §1, with “Each symbol in A, C-E, and H represents an individual mouse, or cell or mitochondria preparation (n=3-15 per condition). Each symbol in J, K, and M corresponds to 20-30 cells in a different field (n=10-20 fields from 3 cell preparations per condition). Values are mean±SEM. *P<0.05, **P<0.01, ***P<0.001 vs. the same parameter in control/untreated pancreas, acinar cells or isolated mitochondria.” left out, “Scale bars: 10 μm.” left out
All fluorescence images were acquired with a Zeiss LSM710 confocal microscope using x63 objective and preset within-experiment image acquisition settings. Quantitative fluorescence analysis was performed with Volocity software (PerkinElmer). Overlap between 2 fluorescent labels was measured using Manders-Costes coefficient. […]

Another experiment relates to mouse acinar cells. The experiment can be described thus: Total cholesterol content of mouse acinar cells (ex vivo pancreatitis models or cholesterol chelator). It counts as cell-based. On the set-up: total cholesterol in acinar cells, physiologic doses: dose or concentration left out as unconfirmed. How it is done: as §1, §2, §3
Total cholesterol content was measured with Cholesterol Assay kit per manufacturer's instructions. Samples of mouse pancreas and liver, cell pellet homogenates, subcellular fractions, isolated mitochondria, and serum were diluted in the reaction buffer containing cholesterol probe and incubated at 37° C. for 1 h in the dark. To measure total cholesterol, the samples were subjected to digestion with cholesterol esterase. To measure non-esterified cholesterol, the esterase was omitted from the assay.
Fluorescence intensity (for cholesterol) and absorbance (for TAG) were measured in a Tecan microplate reader. Each measurement was in duplicate, and the values were normalized per mg total protein in the sample.

The next experiment concerns neutral lipids. The experiment can be described thus: BODIPY 493/503 staining of neutral lipids in acinar cells. It counts as cell-based, mouse. As to conditions: BafA1 20 nM. The procedure:
FIGS. 13A-13G show neutral lipids accumulate in LE/Ly and autophagic compartments of Gnptab^−/− pancreas. Characteristics of neutral lipid metabolism were measured in (A-C,F,G) pancreatic tissue of WT, Gnptab^−/− (KO) and Atg5^Δpan mice, and (D,E) WT and KO acinar cells treated with Bafilomycin A1 (BafA1; 20 nM). (A) EM showing lipid inclusions in KO pancreas. (B-E) Tissue or cells were stained with BODIPY 493/503 for neutral lipids; BODIPY fluorescence intensity was quantified with Volocity software, normalized to the number of nuclei (DAPI) in the field, and expressed relative to WT control. […] (F,G) Perilipins (PLINs) were analyzed by immunoblot; their band intensities were densitometrically quantified, normalized to GAPDH in the same sample and, further, to WT. […] Significance was determined by 2-tailed Student's t test (G) or 1-way ANOVA followed by Tukey's multiple comparisons test (C,E). […]
All fluorescence images were acquired with a Zeiss LSM710 confocal microscope using x63 objective and preset within-experiment image acquisition settings. Quantitative fluorescence analysis was performed with Volocity software (PerkinElmer). Overlap between 2 fluorescent labels was measured using Manders-Costes coefficient. Pearson's colocalization coefficient was calculated if both immunolabeled proteins had the same (e.g. “dotted”) staining pattern.

Another experiment has as its system LC3-II. Put plainly: Autophagic flux analysis: LC3-II immunoblot in pancreatic acinar cells. It counts as cell-based, mouse. Particulars: 30 minutes. The procedure:
FIGS. 2A-2L show Gnptab ablation stimulates autophagosome formation and blocks autophagic flux in pancreatic acinar cells. Parameters of autophagy were measured in WT and […] pancreatic (A-C) acinar cells and (D-L) tissue. (A-C) Acinar cells incubated for 30 minutes with and without bafilomycin A1 (BafA1; 20 nM); LC3-II band intensity was quantified by densitometry, normalized to ERK in the same sample, and LC3-II/ERK ratios further normalized to untreated WT cells (control). Values are mean±SEM; each symbol represents an individual cell preparation (n=4-6 per condition). sP<0.05; paired 2-tailed Student's t test. (D) IB analysis of autophagic markers/mediators. Ub, ubiquitylated proteins. (E-K) Immunofluorescence colocalization analysis for LC3 and LAMP1 (E, G, and H), and LC3 and Stx17 (F and I-K) in WT and KO pancreas. In this and other figures, colocalization was quantified with Volocity software using Manders-Costes (percentage colocalization) and Pearson's coefficients. Values are mean±SEM; each symbol corresponds to 20 to 30 cells in a different field (n=6-9 fields from 3 mice per condition). ***P<0.001 vs. WT; 2-tailed Student's t test. (L). EM showing abnormally large autolysosomes with partially degraded material in pancreas of KO mice. Scale bars: 10 μm (E and F) and 3 μm (L).
To further assess the effects of Gnptab KO on autophagy, autophagic flux analysis was performed by measuring changes in LC3-II in acinar cells incubated with and without the lysosomal v-ATPase inhibitor, bafilomycin A1 (BafA1) (FIG. 2, A-C). The number of autophagic vacuoles in a cell is a net balance between autophagosome formation and their degradation through autophagic flux. Thus, the increase in LC3-II observed in KO pancreas (FIG. 1F and FIG. 2D; see also FIG. 17G) could have resulted from both induction of autophagosome formation and the inhibition of flux. […]
Immunoblots were developed using enhanced chemiluminescence detection kit (Pierce), and band intensities were quantified by densitometry using FluorChem HD2 imaging system (Alpha Innotech/ProteinSimple).

The next experiment has as its system trypsin. The experiment can be described thus: Trypsin activity in Gnptab−/− acinar cells. The experiment is classed as cell-based, mouse. As to conditions: 3 hours; 50 μM CA-074Me or 20 nM BafA1. The procedure:
FIGS. 6A-6R show mechanisms mediating increased trypsin activity in Gnptab−/− pancreas. Trypsin activity and its regulation were analyzed in pancreatic (A, C, and D) tissue, (B and P-R) acinar cells, (E-H and O) lobules, and (I-N) subcellular fractions. In B, acinar cells were incubated for 3 hours without and with 20 nM BafAl or 50 μM CatB inhibitor CA-074Me; in P-R, with the cholesterol chelator methyl-β-cyclodextrin (MCD) at the indicated concentrations. In E-H, pancreatic lobules were double stained for TAP and LC3 or LAMP2; in O, for TAP and filipin. Quantitative colocalization analysis was done as detailed in FIG. 2. Each symbol in A, B, J-N, Q, and R represents an individual mouse or cell preparation (n=3-8 per condition). Each symbol in D, G, and H corresponds to 20 to 30 cells in a different field (n=9-20 fields from 3 WT and 3 KO mice or lobule preparations). Values are mean±SEM. **P<0.01, ***P<0.001 vs. WT tissue/lobules (A, G, and H) or corresponding WT subcellular fraction (K and M). ##P<0.01 vs. no inhibitors (B) or MCD (Q and R). ††P<0.01, †††P<0.001 vs. the other two fractions (L and N). Significance was determined by 2-tailed Student's t test (A, G, and H) or 1-way ANOVA followed by Tukey's multiple comparison test (B, K-N, Q, and R). Scale bars: 10 μm.
Activities of cathepsin (Cat) B and L, caspase-3, trypsin, and lysosomal acid lipase (LAL) were measured in pancreatic tissue or cell homogenates and subcellular fractions with fluorogenic assays using substrates specific for CatB (Z-Arg-Arg-AMC), CatL (Z-Phe-Arg-AMC), caspase-3-like ([…]), trypsin (Boc-Gln-Ala-Arg-AMC), as previously described (1-4, 6, 7); and for LAL (4-methylumbelliferyl oleate), as in (17). In measurements of CatL activity, the assay buffer also contained 50 μM CA-074me, a CatB inhibitor. LAL activity was measured in the absence and presence of the LAL inhibitor lalistat (100 μM) as the difference between these values (17).

The mark [1] stands for this setting: ex-vivo pancreatitis, 1 h, 100 nM CCK, 1 mM carbachol or 500 μM TLCS.
[2] abbreviates: supramaximal (100 nM) CCK-8 or carbachol, ex vivo AP.

No end group written: not given here.

Turning to “CCK: hormone cholecystokinin-8 (CCK) (DYMGWMDF; ends and bridges not checked; UniProt P06307 96-103, looked up)”, the “cholesterol overload, human acinar cells” value with human acinar cells (setting [1]) is “prominent”. Also, in the experiment with human acinar cells (setting [2]), the “cholesterol content, human acinar cells, supramaximal stimulation” value was “increased”. Besides, in the experiment with free cholesterol, the “free cholesterol in Rab7-positive LE/Ly” value is “accumulation” and the “plasma membrane free cholesterol (filipin colocalization with cadherin)” value is on record as “markedly decreased”. Moreover, the “cholesterol overload, mouse acinar cells” value in the experiment with mouse acinar cells (setting [1]) was “prominent”. For the same compound, the “total cholesterol in acinar cells, physiologic doses” value in the experiment on mouse acinar cells (physiologic doses of CCK or carbachol) is listed as “did not alter”. Moreover, in the experiment on mouse acinar cells (setting [2]), the “cholesterol content, mouse acinar cells, supramaximal stimulation” value was “increased”.
For the compound `CO/C1=C\C(C)=C\[C@@H](C)[C@@H](O)[C@@H](C)C/C(C)=C/C=C/[C@H](OC)[C@@H]([C@@H](C)[C@@H](O)[C@H](C)[C@@]2(O)C[C@@H](O)[C@H](C)[C@@H](C(C)C)O2)OC1=O` [BafA1, bafilomycin A1], the “BODIPY staining, KO” value in the experiment on neutral lipids (Gnptab−/− acinar cells) is given as “no additional effect”. In addition, the “BODIPY staining increase, WT” value in the experiment with neutral lipids (WT acinar cells) was “approximately 3 fold”. For the same compound, the “LC3-II levels in KO compared with WT in presence of BafA1” value in the experiment with LC3-II (BafA1 20 nM, Gnptab−/− vs WT acinar cells) was “approximately 11 fold”. In addition, in the experiment with LC3-II (Gnptab−/− (KO) acinar cells, 20 nM), the “LC3-II increase by BafA1, KO” value was “no increase”. For the same compound, the “LC3-II increase by BafA1, WT” value in the experiment with LC3-II (WT acinar cells, 20 nM) is given as “approximately 4 fold”. For the same compound, the “Reduction of trypsin activity, Gnptab−/− acinar cells” value in the experiment on trypsin is on record as “by half”.
